Measured values taken from patent US12427151B2, “Compositions and method of treating cancer” (The Regents of the University of California, priority 2017, dated 2025).

How the values were obtained:
B16F10 melanoma = experiment: In vivo tumor growth assay; parameters: species or system C57BL6 mice; conditions: intravenous 20 mg/kg every 48 hrs for 2 weeks
Method: (a-c) Effect of a single intravascular injection of 6-HAP on skin infection by GAS. The size of the infected lesion was measured by Image-J software (a). Representative images of infected skin (arrow) of mouse treated with 6-HAP or vehicle at Day-1 and Day-3 post infection are shown in (b). Infected skin was removed 24 and 72 hrs after bacterial injection and homogenized in PBS (c). CFUs were enumerated by plating serial dilutions of the homogenate on an agar plate. The data represent mean±SE of eight individual experiments (*P<0.05 and **P<0.01 by Student's t-test vs vehicle control). (d-e) Effect of repeated intravascular administrations with 6-HAP on growth of melanoma in mice. The data represent mean±SE of 10 individual experiments (*P<0.05, **P<0.01 and ***P<0.001 by Student's t-test vs vehicle control) (d). Representative images of tumor (broken line) in mouse treated with 6-HAP or vehicle at Day-9 and Day-13 are shown in (e).
In vivo tumor growth assay. B16F10 were suspended in sterile PBS. Shaved mouse dorsal skin was intradermally injected with 3×10^5 cells/50 μL. The C57BL6 mice were subsequently injected with 6-HAP dissolved in 2.5% DMSO/0.9% NaCl solution (40 mg/mL) at the dose of 20 mg/kg mouse via intravascular route every 48 hrs for 2 weeks. […] Tumor size was measured as the two perpendicular diameters with a caliper and volume was estimated by a formula, width^2×length/2. […]

GAS [1] = experiment: Stability of antimicrobial activity after heat or protease treatment (radial diffusion assay); assay type: physicochemical, group A streptococcus; conditions: activity against GAS
Description: (a) Screening for antimicrobial activity of culture supernatant from 44 strains of S. epidermidis strains isolated from normal human skin by radial diffusion assay against group A streptococcus (GAS). Data represent diameter of growth inhibition zone of conditioned media of each strain. UD=undetectable. (b) Elution profile of the antimicrobial compound purified from culture supernatant of S. epidermidis MO34 by HPLC using a PolyHYDROXYMETHYL. The last step of 5 purification steps is shown. The insert panel represents antimicrobial activity of each fraction on radial diffusion assay against GAS. Green line represents a gradient of H2O in acetonitrile. (c-d) Stability of antimicrobial molecules from S. epidermidis producing the strongest antibiotic activity (MO34) against GAS after heat-treatment (100° C. for indicated time) (c) and incubation with proteinase K (2 mg/mL) or papain (2 mg/mL) at 37° C. for 3 hrs, followed by 5-min incubation at 90° C. to inactivate enzyme (d). Antimicrobial activity against GAS was determined by radial diffusion assay.
To characterize the molecule(s) responsible for antimicrobial activity secreted from the MO34 strain, the antimicrobial molecule was purified from the conditioned media based on activity against GAS. A single peak was isolated in the last chromatography of 5 purification steps (FIG. 1b). […]

GAS [2] = experiment: Antimicrobial activity against GAS in the presence of adenine; assay type: cell-based, group A Streptococcus; conditions: 20 hrs, CFU
Method: (a) Time course killing of GAS in THB containing 6-HAP (25 μg/mL), mitomycin C (5 μg/mL), or LL-37 (10 μM). At each indicated time point, live GAS in the media was measured by counting CFU on an agar plate. The data represent mean±SE of four individual experiments. (b) Membrane permeability of GAS incubated in THB containing 6-HAP (25 μg/mL), mitomycin C (5 μg/mL) and LL-37 (10 μM) for 1 hr. The bacteria with compromised plasma membranes (Red) can be distinguished from those with intact membranes (Green). (c) BrdU incorporation into nascent DNA of GAS after incubation with 6-HAP (25 μg/mL) or mitomycin C (5 μg/mL) in THB containing BrdU (10 μM) for 30 or 60 min. (d) BrdU incorporation into nascent DNA of S. epidermidis ATCC12228 after incubation with 6-HAP (25 μg/mL) or mitomycin C (5 μg/mL) in THB containing BrdU (10 μM) for 60 min. The data represent mean±SE of five individual experiments (*P<0.05 and **P<0.01 by Student's t-test vs vehicle control). […] Extension reaction was analyzed on a 20% acrylamide gel by electrophoresis (f). […] GAS survival was measured by counting CFU. […]
We next assessed the effect of 6-HAP on DNA synthesis. […] To directly examine the action of 6-HAP on DNA extension in a cell free system, 25-bp templates and matching 18-bp fluorescence primers were designed to measure DNA extension in vitro by Klenow (exo) DNA polymerase (FIG. 4e).

## ONc1ncnc2nc[nH]c12 [6-HAP, 6-N-hydroxyaminopurine]
B16F10 melanoma
  tumor size suppression compared to vehicle: > 60%
GAS [1]; 100° C. for indicated time
  heat stability of antimicrobial activity: heat-stable
GAS [1]; proteinase K (2 mg/mL) or papain (2 mg/mL) at 37° C. for 3 hrs
  protease sensitivity of antimicrobial activity: protease-insensitive
GAS [2]
  antimicrobial activity against GAS on addition of excessive adenine: partially decreased
